Values belong to the compound of their own block, whether it stands above or below them. The source made the active and inactive calls. The rule behind the calls is not given here.
Key:
[1] = biological target: Sphingosine 1-phosphate receptor 3 (Homo sapiens, UniProt Q99500); assay: Agonist activity at S1P3 (unknown origin) expressed in PathHunter CHO-K1 EDG1 beta-arrestin cells assessed as beta-arrestin recruitment; type: functional, cell-based
[2] = biological target: T1, Sphingosine 1-phosphate receptor 4 (Homo sapiens, UniProt O95977); assay: Agonist activity at S1P4 (unknown origin) expressed in CHO cells assessed as Ca2+ activation; type: functional, cell-based
T1 sequence (O95977 whole entry): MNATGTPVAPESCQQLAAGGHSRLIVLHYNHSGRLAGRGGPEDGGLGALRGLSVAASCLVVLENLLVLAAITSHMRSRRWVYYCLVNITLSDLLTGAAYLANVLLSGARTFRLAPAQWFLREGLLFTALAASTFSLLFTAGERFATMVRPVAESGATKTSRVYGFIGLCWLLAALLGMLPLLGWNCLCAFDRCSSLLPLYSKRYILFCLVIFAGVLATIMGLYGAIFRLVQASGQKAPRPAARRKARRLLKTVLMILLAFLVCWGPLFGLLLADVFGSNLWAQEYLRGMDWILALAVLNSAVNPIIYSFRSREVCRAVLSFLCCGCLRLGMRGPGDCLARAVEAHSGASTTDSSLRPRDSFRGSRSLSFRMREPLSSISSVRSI

[3] = biological target: T2, Sphingosine 1-phosphate receptor 1 (Homo sapiens, UniProt P21453); assay: Agonist activity at S1P1 (unknown origin) expressed in human HEK293/Galpha15 cells assessed as Ca2+ activation measured for 2 hrs by FLIPR analysis; type: functional, cell-based
[4] = AUClast in ICR mouse at 10 mg/kg, po measured at 0.25 to 12 hrs by LC-MS/MS analysis; type: ADME, organism-based; set-up: time 0.25-12 hrs, dose 10 mg/kg, route po; details: in vivo
[5] = Observed MRT (infinitive) in ICR mouse at 1 mg/kg, iv measured at 0.25 to 12 hrs by LC-MS/MS analysis; type: ADME, organism-based; details: in vivo, time 0.25-12 hrs
[6] = Microsomal stability in rat liver microsomes assessed as parent compound remaining preincubated for 5 mins followed by NADPH addition measured after 60 mins by LC-MS/MS analysis; type: ADME, Microsome; details: time 65 min, read-out: Stability
[7] = tested on: Mus musculus; assay: Protection against MOG35-55/CFA-induced experimental autoimmune encephalomyelitis C57BL/6 mouse model assessed as reduction disease progression at 10 mg/kg, po administered once a day for 23 days; type: functional, organism-based; details: time 23.0 day
[8] = AUClast in ICR mouse at 1 mg/kg, iv measured at 0.25 to 12 hrs by LC-MS/MS analysis; type: ADME, organism-based; set-up: time lower 0.25 hrs, dose 1 mg/kg, time upper 12 hrs, route iv; details: in vivo
[9] = biological target: CYP3A4 (Homo sapiens, UniProt P08684); assay: Inhibition of CYP3A4 in human liver microsomes using midazolam as substrate assessed as residual activity at 10 uM preincubated for 5 mins followed by substrate addition and measured after 15 mins in presence of NADPH by LC-MS/MS analysis; type: ADME, Microsome; details: probe midazolam, time 20 min, read-out: Activity
[10] = Cardiotoxicity in human iPSC-derived cardiomyocyte assessed as effect on intracellular cardiomyocyte contraction at 10 uM measured for 2 mins by FLIPR analysis; type: toxicity, cell-based; details: cardiac muscle cell
[11] = Observed MRT (infinitive) in ICR mouse at 10 mg/kg, po measured at 0.25 to 12 hrs by LC-MS/MS analysis; type: ADME, organism-based; details: in vivo, time 0.25-12 hrs
[12] = biological target: CYP2D6 (Homo sapiens, UniProt P10635); assay: Inhibition of CYP2D6 in human liver microsomes using dextromethorphan as substrate assessed as residual activity at 10 uM preincubated for 5 mins followed by substrate addition and measured after 15 mins in presence of NADPH by LC-MS/MS analysis; type: ADME, Microsome; details: probe dextromethorphan, time 20 min, read-out: Activity
[13] = Half life in ICR mouse at 1 mg/kg, iv measured at 0.25 to 12 hrs by LC-MS/MS analysis; type: ADME, organism-based; details: in vivo, time 0.25-12 hrs
[14] = Toxicity in C57BL/6 mouse assessed as body weight loss at 10 mg/kg, po administered once a day for 23 days; type: organism-based; details: in vivo, 552 h, time 23 day
[15] = Oral bioavailability in ICR mouse at 10 mg/kg measured at 0.25 to 12 hrs by LC-MS/MS analysis; type: ADME, organism-based; details: in vivo, time 0.25-12 hrs
[16] = biological target: T2, Sphingosine 1-phosphate receptor 1; assay: Agonist activity at S1P1 (unknown origin) expressed in human HEK293/Galpha15 cells assessed as Ca2+ activation at 1 uM measured for 2 hrs by FLIPR analysis relative to control; type: functional, cell-based; details: filed as agonist
[17] = Microsomal stability in mouse liver microsomes assessed as parent compound remaining preincubated for 5 mins followed by NADPH addition measured after 60 mins by LC-MS/MS analysis; type: ADME, Microsome; details: time 65 min, read-out: Stability
[18] = tested on: Mus musculus; assay: In vivo agonist activity at S1P1 in mouse assessed as reduction in peripheral lymphocyte count at 10 mg/kg, po measured at 6 hrs; type: functional, organism-based
[19] = Cmax in ICR mouse at 10 mg/kg, po measured at 0.25 to 12 hrs by LC-MS/MS analysis; type: ADME, organism-based; set-up: time upper 12 hrs, dose 10 mg/kg, time lower 0.25 hrs, route po; details: in vivo
[20] = biological target: T1, Sphingosine 1-phosphate receptor 4; assay: Agonist activity at S1P4 (unknown origin) expressed in PathHunter CHO-K1 EDG1 beta-arrestin cells assessed as beta-arrestin recruitment; type: functional, cell-based
[21] = biological target: Sphingosine 1-phosphate receptor 5 (Homo sapiens, UniProt Q9H228); assay: Agonist activity at S1P5 (unknown origin) expressed in CHO cells assessed as Ca2+ activation; type: functional, cell-based
[22] = tested on: Mus musculus; assay: In vivo agonist activity at S1P1 in po dosed mouse assessed as reduction in peripheral lymphocyte count at 1 to 10 mg/kg, po measured after 24 hrs; type: functional, organism-based; details: dose 1-10 mg/kg
[23] = biological target: CYP2C9 (Homo sapiens, UniProt P11712); assay: Inhibition of CYP2C9 in human liver microsomes using diclofenac as substrate assessed as residual activity at 10 uM preincubated for 5 mins followed by substrate addition and measured after 15 mins in presence of NADPH by LC-MS/MS analysis; type: ADME, Microsome; details: probe diclofenac, time 20 min, read-out: Activity
[24] = Observed volume of distribution at steady state in ICR mouse at 1 mg/kg, iv measured at 0.25 to 12 hrs by LC-MS/MS analysis; type: ADME, organism-based; details: in vivo, time 0.25-12 hrs, read-out: Vdss
[25] = tested on: Mus musculus; assay: In vivo agonist activity at S1P1 in po dosed mouse assessed as reduction in peripheral lymphocyte count measured at 6 hrs; type: functional, organism-based; details: dose 1-10 mg/kg
[26] = biological target: T2, Sphingosine 1-phosphate receptor 1; assay: Agonist activity at S1P1 (unknown origin) expressed in PathHunter CHO-K1 EDG1 beta-arrestin cells assessed as beta-arrestin2 recruitment incubated for 90 mins by chemiluminescence based assay; type: functional, cell-based
[27] = biological target: T2, Sphingosine 1-phosphate receptor 1; assay: Agonist activity at S1P1 (unknown origin) expressed in PathHunter CHO-K1 EDG1 beta-arrestin cells assessed as beta-arrestin2 recruitment at 1 uM incubated for 90 mins by chemiluminescence based assay relative to control; type: functional, cell-based; details: filed as agonist
[28] = biological target: Sphingosine 1-phosphate receptor 2 (Homo sapiens, UniProt O95136); assay: Agonist activity at S1P2 (unknown origin) expressed in PathHunter CHO-K1 EDG1 beta-arrestin cells assessed as beta-arrestin recruitment; type: functional, cell-based
[29] = Observed clearance in ICR mouse at 1 mg/kg, iv measured at 0.25 to 12 hrs by LC-MS/MS analysis; type: ADME, organism-based; details: in vivo, time 0.25-12 hrs
[30] = Half life in ICR mouse at 10 mg/kg, po measured at 0.25 to 12 hrs by LC-MS/MS analysis; type: ADME, organism-based; details: in vivo, time 0.25-12 hrs
[31] = Tmax in ICR mouse at 10 mg/kg, po measured at 0.25 to 12 hrs by LC-MS/MS analysis; type: ADME, organism-based; details: in vivo, time 0.25-12 hrs
[32] = tested on: Mus musculus; assay: In vivo agonist activity at S1P1 in mouse assessed as reduction in peripheral lymphocyte count at 1 to 3 mg/kg, po measured at 3 hrs; type: functional, organism-based; details: dose 1-3 mg/kg
[33] = tested on: Mus musculus; assay: In vivo agonist activity at S1P1 in mouse assessed as reduction in peripheral lymphocyte count at 10 mg/kg, po measured at 3 hrs; type: functional, organism-based
[34] = Cardiotoxicity in human iPSC-derived cardiomyocyte assessed as effect on intracellular cardiomyocyte contraction at 20 uM measured for 2 mins by FLIPR analysis; type: toxicity, cell-based; details: cardiac muscle cell

T2 sequence (P21453 whole entry): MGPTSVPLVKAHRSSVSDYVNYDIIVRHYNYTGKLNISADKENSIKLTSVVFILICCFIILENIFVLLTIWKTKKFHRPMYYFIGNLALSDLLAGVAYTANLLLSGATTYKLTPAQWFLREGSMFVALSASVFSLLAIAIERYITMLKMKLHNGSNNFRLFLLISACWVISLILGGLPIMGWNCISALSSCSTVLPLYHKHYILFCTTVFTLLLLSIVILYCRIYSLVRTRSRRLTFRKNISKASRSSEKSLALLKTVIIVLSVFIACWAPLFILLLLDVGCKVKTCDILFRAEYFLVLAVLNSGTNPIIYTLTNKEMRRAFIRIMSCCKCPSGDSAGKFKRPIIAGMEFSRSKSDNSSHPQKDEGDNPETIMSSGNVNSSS
Sequence of Sphingosine 1-phosphate receptor 3 (Q99500 whole entry): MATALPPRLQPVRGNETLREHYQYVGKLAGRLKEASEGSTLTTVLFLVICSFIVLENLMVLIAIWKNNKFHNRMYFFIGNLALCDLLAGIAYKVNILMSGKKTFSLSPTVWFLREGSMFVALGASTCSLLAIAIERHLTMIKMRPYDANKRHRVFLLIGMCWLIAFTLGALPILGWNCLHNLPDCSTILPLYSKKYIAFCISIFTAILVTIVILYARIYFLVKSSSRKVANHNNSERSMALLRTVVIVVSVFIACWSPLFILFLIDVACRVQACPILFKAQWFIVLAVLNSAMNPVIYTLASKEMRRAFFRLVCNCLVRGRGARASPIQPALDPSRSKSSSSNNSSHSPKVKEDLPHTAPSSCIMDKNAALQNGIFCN
Sequence of CYP2D6 (P10635 whole entry): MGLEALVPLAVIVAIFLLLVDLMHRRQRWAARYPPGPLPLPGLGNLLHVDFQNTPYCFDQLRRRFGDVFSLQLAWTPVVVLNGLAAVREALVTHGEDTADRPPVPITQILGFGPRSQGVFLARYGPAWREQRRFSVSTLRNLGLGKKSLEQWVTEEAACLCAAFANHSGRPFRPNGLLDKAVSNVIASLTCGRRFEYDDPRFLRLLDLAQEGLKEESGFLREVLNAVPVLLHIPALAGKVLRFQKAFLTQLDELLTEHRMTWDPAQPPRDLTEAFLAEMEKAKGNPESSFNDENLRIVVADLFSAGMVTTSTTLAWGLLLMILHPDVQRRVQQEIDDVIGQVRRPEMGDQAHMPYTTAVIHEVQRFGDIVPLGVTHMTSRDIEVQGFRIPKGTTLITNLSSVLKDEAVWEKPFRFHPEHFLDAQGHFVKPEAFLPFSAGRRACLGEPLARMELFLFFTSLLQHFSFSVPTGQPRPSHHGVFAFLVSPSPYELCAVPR
Sequence of Sphingosine 1-phosphate receptor 2 (O95136 whole entry): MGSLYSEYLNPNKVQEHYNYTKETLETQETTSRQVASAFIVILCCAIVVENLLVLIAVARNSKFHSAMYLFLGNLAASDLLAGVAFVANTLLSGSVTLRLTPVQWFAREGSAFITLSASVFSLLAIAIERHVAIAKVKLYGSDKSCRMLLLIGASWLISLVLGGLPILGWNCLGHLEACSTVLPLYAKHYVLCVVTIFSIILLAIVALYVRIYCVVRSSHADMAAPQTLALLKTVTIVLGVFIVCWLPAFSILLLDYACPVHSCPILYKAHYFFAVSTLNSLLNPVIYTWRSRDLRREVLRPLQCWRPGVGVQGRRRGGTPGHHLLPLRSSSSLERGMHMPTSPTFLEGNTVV
Sequence of CYP3A4 (P08684 whole entry): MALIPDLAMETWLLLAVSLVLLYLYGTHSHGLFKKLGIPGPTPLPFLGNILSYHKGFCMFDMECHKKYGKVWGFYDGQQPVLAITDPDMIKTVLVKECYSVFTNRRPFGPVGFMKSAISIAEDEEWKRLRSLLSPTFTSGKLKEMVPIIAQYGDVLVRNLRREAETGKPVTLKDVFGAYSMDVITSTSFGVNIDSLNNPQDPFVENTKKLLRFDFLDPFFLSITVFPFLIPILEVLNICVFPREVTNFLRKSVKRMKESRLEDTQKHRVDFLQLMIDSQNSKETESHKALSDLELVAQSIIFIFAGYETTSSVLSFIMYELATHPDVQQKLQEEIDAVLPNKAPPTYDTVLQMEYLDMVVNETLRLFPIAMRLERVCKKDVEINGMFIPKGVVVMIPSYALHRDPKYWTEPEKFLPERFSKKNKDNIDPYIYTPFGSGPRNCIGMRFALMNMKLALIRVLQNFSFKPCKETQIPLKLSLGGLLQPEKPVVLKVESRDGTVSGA
Sequence of Sphingosine 1-phosphate receptor 5 (Q9H228 whole entry): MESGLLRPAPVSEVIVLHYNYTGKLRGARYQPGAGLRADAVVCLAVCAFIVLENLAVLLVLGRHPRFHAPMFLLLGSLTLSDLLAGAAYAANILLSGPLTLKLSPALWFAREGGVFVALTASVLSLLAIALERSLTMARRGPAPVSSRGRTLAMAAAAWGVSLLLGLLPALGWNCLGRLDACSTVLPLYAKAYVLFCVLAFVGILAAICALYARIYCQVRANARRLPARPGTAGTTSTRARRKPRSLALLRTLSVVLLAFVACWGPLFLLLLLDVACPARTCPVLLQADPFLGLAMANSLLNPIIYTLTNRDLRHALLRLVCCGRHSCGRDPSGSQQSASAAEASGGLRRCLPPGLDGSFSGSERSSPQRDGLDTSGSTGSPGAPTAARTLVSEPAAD
Sequence of CYP2C9 (P11712 whole entry): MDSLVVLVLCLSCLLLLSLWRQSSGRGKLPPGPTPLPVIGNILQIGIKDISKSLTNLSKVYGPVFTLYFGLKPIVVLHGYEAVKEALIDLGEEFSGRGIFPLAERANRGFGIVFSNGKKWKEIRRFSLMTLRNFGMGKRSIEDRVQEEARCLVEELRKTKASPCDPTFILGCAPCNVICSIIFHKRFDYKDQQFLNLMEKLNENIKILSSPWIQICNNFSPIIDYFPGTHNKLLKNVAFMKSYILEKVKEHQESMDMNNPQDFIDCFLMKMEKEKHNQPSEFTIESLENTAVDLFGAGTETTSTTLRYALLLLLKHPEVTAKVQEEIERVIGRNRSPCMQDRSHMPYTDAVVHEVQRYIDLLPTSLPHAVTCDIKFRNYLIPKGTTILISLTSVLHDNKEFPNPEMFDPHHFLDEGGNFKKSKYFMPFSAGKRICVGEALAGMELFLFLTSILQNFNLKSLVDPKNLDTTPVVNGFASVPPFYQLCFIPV

- EC50 [1]: > 100000 nM
- EC50 [2]: 33000 nM
- EC50 [3]: 21 nM
- AUC(0-t) [4]: 1960 ng·h/mL
- MRT inf [5]: 0.4 h
- remaining at 1 h [6]: 62.2%
- AUC(0-t) [8]: 593 ng·h/mL
- activity at 0.25 h, 10 µM [9]: 96.4%
- MRT inf [11]: 2.5 h
- activity at 0.25 h, 10 µM [12]: 94.8%
- half-life [13]: 0.6 h
- bioavailability [15]: 33%
- Activity [16]: 113%
- remaining at 1 h [17]: 67.1%
- Cmax [19]: 1130 ng/mL
- EC50 [20]: 17700 nM
- EC50 [21]: 110 nM
- activity at 0.25 h, 10 µM [23]: 96.2%
- Vd [24]: 0.6 L/kg
- EC50 [26]: 16 nM
- Activity [27]: 81%
- EC50 [28]: > 100000 nM
- clearance [29]: 29 mL/min/kg
- half-life [30]: 1.8 h
- Tmax [31]: 5 h
SMILES: CC(C)Oc1ccc(COc2ccc3c(c2)CCCN(S(=O)(=O)CCC(=O)O)C3)cc1C#N
- Activity [7]: Active
- Activity [10]: Non-Toxic
- Activity [14]: Non-Toxic
- Activity [18]: Active
- Activity [22]: Active
- Activity [25]: Dose-Dependent Effect
- Activity [32]: Active
- Activity [33]: Active

SMILES: CCCCCCCCCCCCC/C=C/[C@@H](O)[C@@H](N)COP(=O)(O)O
- EC50 [1]: 22 nM
- EC50 [2]: 9 nM
- EC50 [20]: 92 nM

SMILES: CC(C)NCC(O)c1ccc(NS(C)(=O)=O)cc1 (configuration not stated) [SOTALOL]
- Activity [34]: Non-Toxic

Source: ChEMBL document CHEMBL5346978, “Exploration of Tetrahydroisoquinoline- and Benzo[c]azepine-Based Sphingosine 1-Phosphate Receptor 1 Agonists for the Treatment of Multiple Sclerosis” (J Med Chem, 2023)
